Test results as given in patent US6461997B1, “Triazole sulfones having herbicidal activity” (Monsanto Technology LLC, priority 1999, dated 2002).

Columns and labels:
AMARE (redroot pigweed) = assay: Pre-plant incorporated (PPI) herbicidal activity, warm season; assay type: in vivo, Amaranthus retroflexus; details: for Percent inhibition AMARE / inhibition at 10 g/ha / inhibition at 30 g/ha / inhibition at 100 g/ha / inhibition at 300 g/ha / inhibition at 900 g/ha: PPI application; for PPI activity (GR80) AMARE: pre-plant incorporated, GR80 = lowest tested rate with 80% or greater inhibition, approx. 14 days after treating, 30/21° C.; for inhibition at 10 g/ha / inhibition at 30 g/ha / inhibition at 100 g/ha / inhibition at 300 g/ha / inhibition at 900 g/ha: Amaranthus retroflexus, read-out: Percent inhibition AMARE
Protocol: (§1) In another set of tests, the pre-plant incorporated (PPI) activity of compounds of this invention was evaluated on the same species as for the pre-emergence tests described above. In the PPI tests the following procedure, designed to simulate PPI application, was used.
(§2) A pre-prepared topsoil mixture (described above) was placed in a pot and compacted to a depth of 1.0 to 1.25 cm from the top of the pot. Seeds of each of several monocotyledonous and dicotyledonous annual plant species were placed on top of the soil. A sufficient quantity of soil to cover the seeds and level fill the pot was weighed into an open container. A known amount of the test compound was dissolved or suspended in an organic solvent and applied by spraying to this cover soil. The cover soil was thoroughly mixed to distribute the test compound throughout the cover soil, and was then applied as a cover layer over the seeds. Untreated soil was used as a cover layer for control pots. After treatment the plants were placed in a greenhouse where they received 0.64 cm of overhead irrigation. All subsequent watering consisted of a light overhead mist and/or subirrigation as needed for germination and growth. Tables 9 and 10 below relate to warm season plant species which were placed after pre-emergence treatment in a greenhouse with a 30/21° C. day/night temperature regime. Tables 11 and 12 below relates to cool season plant species placed after pre-emergence treatment in a greenhouse or growth chamber with an 18/13° C. day/night temperature regime. Only the compounds of Examples 1, 6, 8, 11, 13 and 15-20 were included in PPI tests.
(§3) Approximately 14 days after planting and treating, the plants were observed and herbicidal efficacy recorded as percent inhibition by comparison with untreated plants.

[1] = test system: AEGCY (jointed goatgrass); assay: Post-emergence herbicidal activity, cool season; assay type: in vivo, Aegilops cylindrica; details: abraded plants sprayed at 300, 100, 30 and 10 g/ha; about 14 days after treatment
How it was run: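 Abraded seedling foliage receives a spray of test compound at four rates, 300 to 10 g/ha, in 50:50 acetone/water at 3,100 l/ha. After about 14 days in an 18/13° C. day/night greenhouse, inhibition is scored against abraded untreated controls and expressed as GR80.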

oilseed rape (BRSNS) = assay: Selectivity test, PPI, cool season crop; assay type: in vivo, Brassica napus; details: PPI application
Protocol: as §2, §3
(§4) Additional pre-emergence and PPI tests were conducted by the procedures described above, on warm and cool season weed species in the presence of crop species, to assess herbicidal selectivity. Crop species included in warm season tests were corn (Zea mays, ZEAMX), rice (Oryza sativa, ORYSA) and soybean (Glycine max, GLYMX). Crop species included in cool season tests were wheat (Triticum aestivum, TRZAW), barley (Hordeunm vulgare, HORVX) and oilseed rape (Brassica napus, BRSNS).
(§5) Tables 15 and 16 relate to pre-emergence and PPI tests respectively on warm season species. Table 17 relates to pre-emergence tests on cool season species.

[2] = test system: GALAP (catchweed bedstraw); assay: Pre-plant incorporated (PPI) herbicidal activity, cool season; assay type: in vivo, Galium aparine; details: for Percent inhibition GALAP / inhibition at 10 g/ha / inhibition at 30 g/ha / inhibition at 100 g/ha / inhibition at 300 g/ha / inhibition at 900 g/ha: weed, PPI application; for PPI activity GR80, GALAP: pre-plant incorporated, lowest tested rate with 80% or greater inhibition, about 14 days; for inhibition at 10 g/ha / inhibition at 30 g/ha / inhibition at 100 g/ha / inhibition at 300 g/ha / inhibition at 900 g/ha: Galium aparine, read-out: Percent inhibition GALAP
Protocol: as §1, §2, §3

barley (HORVX) = assay: Selectivity test, PPI, cool season crop; assay type: in vivo, Hordeunm vulgare; details: PPI application; for inhibition at 10 g/ha / inhibition at 30 g/ha / inhibition at 100 g/ha / inhibition at 300 g/ha / inhibition at 900 g/ha: Hordeum vulgare, read-out: Percent inhibition HORVX
Protocol: as §2, §3, §4, §5

POLCO (wild buckwheat) = assay: Pre-emergence herbicidal activity, cool season; assay type: in vivo, Polygonum convolvulus; details: lowest tested rate with 80% or greater inhibition; rates 300, 100, 30, 10 g/ha; about 14 days
How it was run: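 Read-out: GR80, derived from percent growth inhibition relative to untreated plants at roughly 14 days after planting and treatment. Compounds went onto the surface of freshly seeded soil at 10–300 g/ha. Day/night regimes were 30/21 °C for millet and crabgrass, 18/13 °C for blackgrass and buckwheat.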

[3] = Brassica napus, 10 g/ha, read-out: Percent inhibition BRSNS
[4] = Brassica napus, 30 g/ha, read-out: Percent inhibition BRSNS
[5] = Brassica napus, 300 g/ha, read-out: Percent inhibition BRSNS
[6] = Brassica napus, 900 g/ha, read-out: Percent inhibition BRSNS

Row | Compound | Percent inhibition AMARE (AMARE (redroot pigweed); 10 g/ha) | Percent inhibition AMARE (AMARE (redroot pigweed); 30 g/ha) | Percent inhibition AMARE (AMARE (redroot pigweed); 100 g/ha) | Percent inhibition AMARE (AMARE (redroot pigweed); 300 g/ha) | Percent inhibition AMARE (AMARE (redroot pigweed); 900 g/ha) | Post-emergence activity GR80, AEGCY [1] | Percent inhibition BRSNS (oilseed rape (BRSNS); 10 g/ha) | Percent inhibition BRSNS (oilseed rape (BRSNS); 30 g/ha) | Percent inhibition BRSNS (oilseed rape (BRSNS); 100 g/ha) | Percent inhibition BRSNS (oilseed rape (BRSNS); 300 g/ha) | Percent inhibition BRSNS (oilseed rape (BRSNS); 900 g/ha) | Percent inhibition GALAP ([2]; 10 g/ha) | Percent inhibition GALAP ([2]; 30 g/ha) | Percent inhibition GALAP ([2]; 100 g/ha) | Percent inhibition GALAP ([2]; 300 g/ha) | Percent inhibition GALAP ([2]; 900 g/ha) | Percent inhibition HORVX (barley (HORVX); 10 g/ha) | Pre-emergence activity GR80, POLCO (POLCO (wild buckwheat)) | PPI activity (GR80) AMARE (AMARE (redroot pigweed)) | PPI activity GR80, GALAP [2] | further results
1 | CCN(CC)C(=O)n1cnc(S(=O)(=O)C(F)(F)SCc2ccccc2)n1 [Example 10] | 0% | 0% | 40% | 100% | 100% | [empty] | 0% | 0% | 0% | 50% | 95% | 0% | 0% | 80% | 50% | 100% | 0% | [empty] |  |  | Percent inhibition HORVX (barley (HORVX); 30 g/ha): 0%; Percent inhibition HORVX (barley (HORVX); 100 g/ha): 0%; Percent inhibition HORVX (barley (HORVX); 300 g/ha): 0%; Percent inhibition HORVX (barley (HORVX); 900 g/ha): 20%
2 | CCN(CC)C(=O)n1cnc(S(=O)(=O)C(F)(F)SCC(=O)OC)n1 [Example 11] | 0% | 90% | 40% | 95% | 100% | [empty] | 0% | 0% | 0% | 0% | 0% | 0% | 0% | 0% | 20% | 90% | 0% | [empty] | 100 g/ha | 300 g/ha | Percent inhibition HORVX (barley (HORVX); 30 g/ha): 0%; Percent inhibition HORVX (barley (HORVX); 100 g/ha): 0%; Percent inhibition HORVX (barley (HORVX); 300 g/ha): 0%; Percent inhibition HORVX (barley (HORVX); 900 g/ha): 10%
3 | CCN(CC)C(=O)n1cnc(S(=O)(=O)C(F)(F)SCCOC)n1 [Example 13] | 0% | 90% | 70% | 100% | 100% | [empty] | 0% | 0% | 0% | 70% | 30% | 0% | 30% | 0% | 40% | 100% | 0% | [empty] | 100 g/ha | 300 g/ha | Percent inhibition HORVX (barley (HORVX); 30 g/ha): 0%; Percent inhibition HORVX (barley (HORVX); 100 g/ha): 20%; Percent inhibition HORVX (barley (HORVX); 300 g/ha): 10%; Percent inhibition HORVX (barley (HORVX); 900 g/ha): 40%
4 | C=CCC(F)(F)S(=O)(=O)c1ncn(C(=O)N(CC)CC)n1 [Example 17, 1-(N,N-diethylcarbamoyl)-3-[(1,1-difluoro-3-butenyl)sulfonyl]-1,2,4-triazole] |  |  |  |  |  | [empty] |  |  |  |  |  |  |  |  |  |  |  | 100 g/ha | 10 g/ha | 100 g/ha | inhibition at 10 g/ha (AMARE (redroot pigweed); 10 g/ha): 60%; inhibition at 30 g/ha (AMARE (redroot pigweed); 30 g/ha): 95%; inhibition at 100 g/ha (AMARE (redroot pigweed); 100 g/ha): 100%; inhibition at 300 g/ha (AMARE (redroot pigweed); 300 g/ha): 100%; inhibition at 900 g/ha (AMARE (redroot pigweed); 900 g/ha): 100%; inhibition at 10 g/ha (oilseed rape (BRSNS); [3]): 0%; inhibition at 30 g/ha (oilseed rape (BRSNS); [4]): 0%; inhibition at 100 g/ha (oilseed rape (BRSNS); Brassica napus, 100 g/ha, read-out: Percent inhibition BRSNS): 0%; inhibition at 300 g/ha (oilseed rape (BRSNS); [5]): 60%; inhibition at 900 g/ha (oilseed rape (BRSNS); [6]): 95%; inhibition at 10 g/ha ([2]; 10 g/ha): 0%; inhibition at 30 g/ha ([2]; 30 g/ha): 60%; inhibition at 100 g/ha ([2]; 100 g/ha): 40%; inhibition at 300 g/ha ([2]; 300 g/ha): 80%; inhibition at 900 g/ha ([2]; 900 g/ha): 100%; inhibition at 10 g/ha (barley (HORVX); 10 g/ha): 0%; inhibition at 30 g/ha (barley (HORVX); 30 g/ha): 0%; inhibition at 100 g/ha (barley (HORVX); 100 g/ha): 10%; inhibition at 300 g/ha (barley (HORVX); 300 g/ha): 30%; inhibition at 900 g/ha (barley (HORVX); 900 g/ha): 60%
5 | C=C(C)CC(F)(F)S(=O)(=O)c1ncn(C(=O)N(CC)CC)n1 [Example 18] |  |  |  |  |  | [empty] |  |  |  |  |  |  |  |  |  |  |  | 300 g/ha | 300 g/ha | 100 g/ha | inhibition at 10 g/ha (AMARE (redroot pigweed); 10 g/ha): 30%; inhibition at 30 g/ha (AMARE (redroot pigweed); 30 g/ha): 100%; inhibition at 100 g/ha (AMARE (redroot pigweed); 100 g/ha): 100%; inhibition at 300 g/ha (AMARE (redroot pigweed); 300 g/ha): 100%; inhibition at 900 g/ha (AMARE (redroot pigweed); 900 g/ha): 100%; inhibition at 10 g/ha (oilseed rape (BRSNS); [3]): 0%; inhibition at 30 g/ha (oilseed rape (BRSNS); [4]): 0%; inhibition at 300 g/ha (oilseed rape (BRSNS); [5]): 20%; inhibition at 900 g/ha (oilseed rape (BRSNS); [6]): 100%; inhibition at 10 g/ha ([2]; 10 g/ha): 70%; inhibition at 30 g/ha ([2]; 30 g/ha): 60%; inhibition at 100 g/ha ([2]; 100 g/ha): 70%; inhibition at 300 g/ha ([2]; 300 g/ha): 100%; inhibition at 900 g/ha ([2]; 900 g/ha): 100%; inhibition at 10 g/ha (barley (HORVX); 10 g/ha): 0%; inhibition at 30 g/ha (barley (HORVX); 30 g/ha): 0%; inhibition at 100 g/ha (barley (HORVX); 100 g/ha): 0%; inhibition at 300 g/ha (barley (HORVX); 300 g/ha): 10%; inhibition at 900 g/ha (barley (HORVX); 900 g/ha): 60%
